For this assay, the system named is bacterial strain LF82 binding to the glycoprotein BSA-(Mannose)3. Description: Bacterial Binding Assay (BBA). In kind it is cell-based, Escherichia coli. Particulars: read-out: Bacterial Binding Assay IC50, LF82/Luciferase strain binding to BSA-(Man)3 coated plates, luminescence. The method, boiled down: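 Inhibition of LF82/luciferase E. coli adhesion is read as luminescence after washing off unbound cells. Compound and bacteria (10^7 per well) are co-incubated 40-75 min at room temperature on wells coated with 0.5-2 μg/mL BSA-(Man)3, with BSA-only wells as background; IC50 values derived.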

Regarding `OC[C@H]1O[C@H](Cc2ccc(-c3ccc(C[C@H]4O[C@H](CO)[C@@H](O)[C@H](O)[C@@H]4O)cc3)cc2)[C@@H](O)[C@@H](O)[C@@H]1O` [Compound 41, ((2R,3S,4R,5S,6R)-2-(Hydroxymethyl)-6-[[4-[4-[[(2R,3S,4R,5S,6R)-3,4,5-trihydroxy-6-(hydroxymethyl)tetrahydropyran-2-yl]methyl]phenyl]phenyl]methyl]tetrahydropyran-3,4,5-triol)], the IC50 turned out to be 550 nM.

The values above are taken from patent publication US11634447B2 (priority 2012, dated 2023).
